US10739353B2, “Suppression of cytokine release and cytokine storm” (SignPath Pharma Inc., priority 2014, dated 2020)
In brackets after ≈: the same amount, converted by molar mass. Entries after “also recorded” stand apart in the source; their conditions may differ. Where two headings read alike, the source gives them in different places.

Experiments:
[1] = Solubility in organic solvents; format: physicochemical
Source text: Comparison of PLGA C3-complex-curcumin vs PLGA S-curcumin indicated the following differences. The solubilities of 99.2% S-Curcumin in all four solvents. […] This confers improved manufacturing capability, and attributes to different pharmacokinetics and pharmacodynamics in in vivo settings (Table 3). [table]

[2] = mice, cited from earlier work; for brain cytokine levels after TBI: cytokines named in value
[3] = system: HIV-1, HIV-2, HSV, HPV, HTLV-1, HBV, HCV, and Japanese encephalitis virus; conditions: cited from earlier work
coxsackie virus = conditions: Song et al; cited from earlier work
Other Key Cytokines = conditions: cited from earlier work
EBOV(Zaire) = test: microbe, parasite or virus in culture; format: cell-based; conditions: Zaire ebolavirus, HeLa, 48 h, read-out: EC50 (anti-EBOV activity)
Interleukins = conditions: cited from earlier work
IL-6, TNF-α and MCP-1 = conditions: streptozotocin rats; cited from earlier work
H1N1 virus = conditions: in culture; cited from earlier work
cytokine release = conditions: cited from earlier work
SOCS proteins = conditions: cited from earlier work
QT interval = conditions: cited from earlier work
[4] = rats, cited from earlier work; for brain / tissue cytokine levels after TBI: cytokines named in value
IL-1β and TNF-α = conditions: intraperitoneal, 3 hours after injury; cited from earlier work
[5] = cited from earlier work; for clinical outcome in patients with TBI: patient trials
[6] = randomized phase II trial, acute stroke, vs control group; cited from earlier work
[7] = system: rat cerebellar granule cells; conditions: toxic doses of glutamate (Bachis et al); cited from earlier work
[8] = rats; cited from earlier work
[9] = phase II trial, 20 patients with severe TBI (Helmy et al)

In the case of COc1cc(/C=C/C(=O)CC(=O)/C=C/c2ccc(O)c(OC)c2)ccc1O [Batch-C100609, diferuloylmethane], the “1 g of solvent solubilize in solvent” value ([1]; Acetone) is reported as 23.6 mL, the “Conc.” value ([1]; Acetone) is reported as 42300 µg/mL and the “Physical appearance of solubility” value ([1]; Acetone) is reported as “Fully”. The “1 g of solvent solubilize in solvent” value ([1]; Acetonitrile) was 184 mL, the “Conc.” value ([1]; Acetonitrile) was 5440 µg/mL and the “Physical appearance of solubility” value ([1]; Acetonitrile) was “Partial”. For the same molecule, the “1 g of solvent solubilize in solvent” value ([1]; Ethanol) was 263 mL, the “Conc.” value ([1]; Ethanol) was 3804 µg/mL and the “Physical appearance of solubility” value ([1]; Ethanol) was “Partial”. The “1 g of solvent solubilize in solvent” value ([1]; Ethyl acetate) was 96.2 mL, the “Conc.” value ([1]; Ethyl acetate) was 10400 µg/mL and the “Physical appearance of solubility” value ([1]; Ethyl acetate) was “Partial”. For the same molecule, the “solubility compared with C3 complex” value ([1]; normalized to equal concentrations, Ethanol, Ethyl acetate, Acetone, Acetonitrile) was “greater solubility”.

In the case of CC(C(=O)O)c1ccc2c(c1)[nH]c1ccc(Cl)cc12 (centres unmarked) [Carprofen], the “brain damage / neurological outcome after TBI” value [2] is listed as “improve neurological functioning” and the “brain cytokine levels after TBI” value [2] is listed as “markedly reduce IL-1β and IL-6”.

In the case of COc1cc(C=CC(=O)CC(=O)C=Cc2ccc(O)c(OC)c2)ccc1O [Curcumin, 1,7-bis(4-hydroxy-3-methoxyphenyl)-1,6-heptadiene-3,5-dione], the activity against viruses [3] is listed as “activity against numerous viruses”, the “coxsackie virus-induced myocardial damage” value (coxsackie virus) is listed as “protected against coxsackie virus-induced severe myocardial damage” and the “expression of IL-1β, IL-6 and TNF-α and NF-κB” value (coxsackie virus) is listed as “reduced expression”. For the same molecule, the “Effect on GROα (CXCL1)” value (Other Key Cytokines) was “↓ GROα”, the “Effect on GROβ (CXCL2)” value (Other Key Cytokines) was “↓ GROβ” and the “Effect on IP-10 (CXCL10)” value (Other Key Cytokines) was “↓ IP-10”. For the same molecule, the “Effect on Interferon γ” value (Other Key Cytokines) was “↓ Interferon γ”, the “Effect on MCP-1 (CCL2)” value (Other Key Cytokines) was “↓ MCP-1” and the “Effect on MIP-1α (CCL3)” value (Other Key Cytokines) was “↓ MIP-1α”. For the same molecule, the “Effect on SDF-1 (CXCL12)” value (Other Key Cytokines) was “↓ SDF-1”, the “Effect on TNF-α” value (Other Key Cytokines) was “↓ TNF-α” and the EC50 (EBOV(Zaire)) was 6.5 ± 0.5 µg/mL (≈ 17.6 µM). For the same molecule, the “Effect on IL-1” value (Interleukins) was “↓ IL-1”, the “Effect on IL-2” value (Interleukins) was “↓ IL-2” and the “Effect on IL-4” value (Interleukins) was “↓ ↑ IL-4”. For the same molecule, the “Effect on IL-5” value (Interleukins) was “↓ IL-5”, the “Effect on IL-6” value (Interleukins) was “↓ IL-6” and the “Effect on IL-8” value (Interleukins) was “↓ IL-8”. The “Effect on IL-10” value (Interleukins) was “↑ IL-10”, the “Effect on IL-11” value (Interleukins) was “↓ IL-11” and the “Effect on IL-12” value (Interleukins) was “↓ IL-12”. The “Effect on IL-13” value (Interleukins) was “↓ IL-13”, the “Effect on IL-17” value (Interleukins) was “↓ IL-17” and the “levels of IL-6, TNF-α and MCP-1” value (IL-6, TNF-α and MCP-1) was “markedly reduced”. The “activity against the H1N1 virus” value (H1N1 virus) was “specific activity”, the “release of IL-1” value (cytokine release; bone marrow stromal cells, colonic epithelial cells and human articular chondrocytes) was “block the release” and the “release of IL-2, IL-12, Interferon-γ” value (cytokine release) was “prevents release”. The “release of IL-8” value (cytokine release; human esophageal epithelial cells and alveolar epithelial cells) was “block the release”, the “IL-1β, IL-8, TNF-α, MCP-1 and MIP-1α release” value (cytokine release; monocytes and macrophages (Abe et al)) was “suppresses” and the “release of IL-6, IL-8, TNF-α and MCP-1” value (cytokine release; monocytes cultured in a high glucose environment (Jain et al)) was “markedly reduced”. The “release of IL-6” value (cytokine release; rheumatoid synovial fibroblasts) was “block the release” and the “effect on SOCS proteins” value (SOCS proteins) was “stimulate”.

For CCCCCCCCc1ccc(CCC(N)(CO)CO)cc1 [Fingolimod], the QT interval (QT interval; patients with relapsing multiple sclerosis, through inhibition of the hERG current) is given as “causes QT prolongation”.

In the case of Cc1cc(-c2ccccc2)nnc1N1CCN(c2ncccn2)CC1 [MW151], the “brain damage / neurological outcome after TBI” value [2] is listed as “improvement in neurologic functioning” and the “brain cytokine levels after TBI” value [2] is listed as “restored abnormal cytokine levels to normal”.

In the case of CC(C)[C@]12O[C@H]1[C@@H]1O[C@]13[C@]1(O[C@H]1C[C@H]1C4=C(CC[C@@]13C)C(=O)OC4)[C@@H]2O [Triptolide], the “brain damage / neurological outcome after TBI” value [4] is given as “reduce neuronal apoptosis” and the “brain / tissue cytokine levels after TBI” value [4] is given as “suppress IL-1β, IL-6 and TNF-α, to increase IL-10 levels”.

For CC(=O)[C@H]1CC[C@H]2[C@@H]3CCC4=CC(=O)CC[C@]4(C)[C@H]3CC[C@]12C [progesterone], the “brain damage / neurological outcome after TBI” value [4] is listed as “improved motor skills, decreased cerebral edema and decreased mortality; also recorded: reducing apoptosis of brain tissue; also recorded: better results on the Neurological Severity Score Test”, the “brain / tissue cytokine levels after TBI” value [4] is listed as “reduced brain levels of IL-6 at 24, 48 and 72 hours; also recorded: decreased levels of IL-1β, IL-6 and TNF-α in the brain; also recorded: reduced brain levels of TNF-α and NF-κB” and the “IL-1β and TNF-α” value (IL-1β and TNF-α) is listed as “reduce IL-1β and TNF-α”. The “favorable outcome on the Glasgow outcome scale” value ([5]; SYNAPSE trial, 1195 patients with severe TBI) was 50.4%.

In the case of CC(C)c1nc(N(C)S(C)(=O)=O)nc(-c2ccc(F)cc2)c1/C=C/[C@@H](O)C[C@@H](O)CC(=O)O [rosuvastatin], the “plasma cytokine levels in patients with TBI” value ([5]; 10 days of rosuvastatin, 19 patients vs 17 controls) is listed as “dramatic decrease in plasma levels of TNF-α; also recorded: No effect was seen on IL-1β, IL-6 or IL-10” and the “clinical outcome in patients with TBI” value [5] is listed as “reduction in amnesia time; also recorded: no difference in disability at 3 months; also recorded: improvement in disability scores”.

For “IL-1RA: IL-1 receptor antagonist; human recombinant IL-1RA is a medication for rheumatoid arthritis”, the “brain damage / neurological outcome after TBI” value [4] is listed as “No effect was seen at low doses; also recorded: decreased neuronal loss”, the “brain / tissue cytokine levels after TBI” value [4] is listed as “reduced tissue IL-1β levels” and the “brain damage / neurological outcome after TBI” value [2] is listed as “reduced lesion volume”. The “loss of cognitive function” value [6] was “less loss of cognitive function”, the “clinical outcome in patients with TBI” value [5] was “unable to conclude that IL-1RA administration resulted in therapeutic benefit” and the “crossing of the blood-brain barrier” value [5, 9] was “does cross the blood-brain barrier”. For the same molecule, the safety [5, 9] was “safe”.

For “TSG-6: TNF-α stimulated gene/protein 6, an anti-inflammatory agent”, the “brain damage / neurological outcome after TBI” value [2] is given as “decreased lesion size and improved neurological recovery”.

In the case of etanercept, the “brain damage / neurological outcome after TBI” value [4] is listed as “reduced neuronal and glial apoptosis and microglial activation; also recorded: increased 5-bromodeoxyuridine and doublecortin markers in the injured brain”, the “brain / tissue cytokine levels after TBI” value [4] is listed as “reducing the increased levels of TNF-α” and the neurological function ([5]; medical records of 617 patients with stroke and 12 with TBI, no control group (Tobinick et al)) is listed as “Marked improvement in neurological function”.

In the case of “tocilizumab: an IL-6 blocker; anti-IL-6 antibody”, the QT interval (QT interval; patients with rheumatoid arthritis) is given as “shortening of the duration of the previously prolonged QT interval”.

B1: IL-10: the most important anti-inflammatory cytokine (protein, UniProt P22301 19-178, looked up)
Interleukin-10: SPGQGTQSENSCTHFPGNLPNMLRDLRDAFSRVKTFFQMKDQLDNLLLKESLLEDFKGYLGCQALSEMIQFYLEEVMPQAENQDPDIKAHVNSLGENLKTLRLRLRRCHRFLPCENKSKAVEQVKNAFNKLQEKGIYKAMSEFDIFINYIEAYMTMKIRN
For B1, the “brain damage / neurological outcome after TBI” value [4] is given as “enhance neurological recovery; also recorded: Intracerebroventricular administration was not effective”, the “brain / tissue cytokine levels after TBI” value [4] is given as “reduce synthesis of IL-1” and the “caspase-3 and neuronal death” value [7] is given as “blocks caspase-3 and reduces neuronal death”. For the same molecule, the “cytokines and recovery after spinal cord injury” value [8] was “reduced TNF-α production and improved motor function”.
